Measured values from article PMC8397297 (ACS Chemical Neuroscience, 2021).
“Also recorded” adds a separate entry of the source.

How the values were obtained:
[1] = biological target: T1, mGAT2 (Mus musculus, UniProt P31651); assay: [3H]GABA uptake assay in HEK-293 cells stably expressing mGAT2; format: cell-based; conditions: [3H]GABA uptake; read-out: pIC50 ± SEM mGAT2 (converted)
T1 construct: expressed in transfected cells; host or cells: HEK-293
T1 sequence (P31651 1-614): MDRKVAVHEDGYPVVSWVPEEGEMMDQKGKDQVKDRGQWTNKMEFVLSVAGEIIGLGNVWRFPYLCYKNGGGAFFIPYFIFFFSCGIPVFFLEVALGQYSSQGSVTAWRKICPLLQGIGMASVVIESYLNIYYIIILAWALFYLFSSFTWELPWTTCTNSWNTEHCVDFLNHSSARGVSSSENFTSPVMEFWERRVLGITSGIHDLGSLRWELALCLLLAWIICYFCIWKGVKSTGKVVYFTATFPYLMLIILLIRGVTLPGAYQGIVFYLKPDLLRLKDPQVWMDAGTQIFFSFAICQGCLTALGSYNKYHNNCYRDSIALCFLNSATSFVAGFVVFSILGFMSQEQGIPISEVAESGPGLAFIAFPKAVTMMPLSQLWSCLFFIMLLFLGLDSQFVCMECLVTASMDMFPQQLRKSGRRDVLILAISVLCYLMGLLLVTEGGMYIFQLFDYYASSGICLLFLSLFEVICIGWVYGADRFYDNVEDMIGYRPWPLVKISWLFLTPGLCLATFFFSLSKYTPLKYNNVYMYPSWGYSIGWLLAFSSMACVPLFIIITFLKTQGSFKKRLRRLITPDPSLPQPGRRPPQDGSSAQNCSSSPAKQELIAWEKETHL

[2] = system: oxaliplatin-treated mice; assay: oxaliplatin-induced peripheral neuropathy, tactile allodynia (von Frey test); format: in vivo, mouse
Method: (§1) Before the in vivo tests, the test compounds were suspended in 1% Tween 80 (Baxter, Poland). The compounds were then administered intraperitoneally. […] The test compounds were administered only once daily on days 1 and 7 of oxaliplatin- or paclitaxel-induced neuropathy. In STZ-treated mice, test compounds were administered 21 days after STZ injection. Control mice used in oxaliplatin and paclitaxel NP models were injected with an appropriate amount of vehicle (0.9% saline). Oxaliplatin was purchased from Activate Scientific GmbH (Germany). Paclitaxel and STZ were purchased from Sigma-Aldrich (Poland).
For pain studies, oxaliplatin was dissolved in 5% glucose solution (Polfa Kutno, Poland). The dose of oxaliplatin used to induce peripheral neuropathy (10 mg/kg, intraperitoneal injection) was chosen on the basis of previous research[63],[64] and available literature data.[65]
The ability of the test compounds to attenuate tactile allodynia caused by oxaliplatin, paclitaxel, and STZ was assessed using the von Frey test. For this purpose, 3 h after oxaliplatin or paclitaxel and 21 days after STZ injection, the predrug paw withdrawal threshold was measured for each mouse. Then, the test compounds were administered, and 1 h later, the postdrug paw withdrawal threshold was collected for each animal. This part of the experiment aimed to establish the effect of treatment on early phase (acute) pain hypersensitivity induced by cytotoxic drugs. Additionally, in the oxaliplatin model and the paclitaxel model, to assess the effect of test compounds on late phase tactile allodynia, 7 days later, measurements of the predrug and postdrug paw withdrawal thresholds were made in a similar manner to the measurements performed during early phase neuropathy. At this stage of the experiment, there was no additional oxaliplatin/paclitaxel administration.
An electronic von Frey unit (Bioseb, France) was used to assess the mechanical nociceptive threshold (tactile allodynia) in mice. This device has a single flexible filament that applies increasing force (from 0 to 10 g) against the plantar surface of the hind paw of each mouse. In the von Frey test, the paw withdrawal response of the animals automatically turns off the stimulus, and the mechanical pressure that evokes this response is recorded. On the day of the experiment, the mice were placed individually in test compartments with a wire mesh bottom and left there for 1 h of habituation. Subsequently, to obtain baseline values, each mouse was tested 3 times alternately in each hind paw. Then, the test compounds were administered, and 1 h later, 3 additional measurements were taken and averaged to obtain the mean postdrug values for each mouse.[69]

[3] = system: paclitaxel-treated mice; assay: paclitaxel-induced peripheral neuropathy, heat nociceptive threshold (hot plate test); format: in vivo, mouse; conditions: for effect on latency to pain reaction (heat), hot plate test: day of paclitaxel administration (paclitaxel-induced hypoalgesia); for effect on thermal nociceptive threshold, hot plate test: seven days after paclitaxel administration, i.p.
Method: as §1
Doses of both paclitaxel and STZ used for the induction of neuropathy were selected based on our previous research.[66],[67] To induce neuropathy, paclitaxel was used at a dose of 18 mg/kg. It was prepared by dissolving in ethanol (100% (v/v); Polskie Odczynniki Chemiczne, Gliwice, Poland) at 10% of the final desired volume and vortexed for 2 min. An equal volume of Cremophor EL (10% of the final volume) was then added, and the mixture was vortexed for the next 10 min. Prior to injection, ice-cold physiological saline (80% of the final volume) was added to make up a final volume and the solution was maintained on ice during dosing.[66] To induce type I diabetes, mice were intraperitoneally injected with STZ (a single injection of STZ, 200 mg/kg) dissolved in 0.1 N citrate buffer. Age-matched control mice received an equal volume of citrate buffer. Blood glucose level was measured 1 day before (referred to as “day 0”) and repeatedly 1, 2, and 3 weeks after STZ injection using a blood glucose monitoring system (Accu-Chek Active, Roche, France). Blood samples for measurement of glucose concentration were obtained from the tail vein of the mice. The animals were considered as diabetic when their blood glucose concentration exceeded 300 mg/dL,[68] and only these mice (diabetic mice) were used in subsequent pain tests.[67]
Thermal (heat) nociceptive threshold was assessed in the hot plate test as previously described.[67] First, baseline (predrug) latencies to pain reaction were established for each mouse. Then, the mice were treated intraperitoneally with either the test compound or vehicle. Sixty minutes later the animals were placed on the hot plate apparatus again (hot/cold plate, Bioseb, France). This apparatus has an electrically heated surface and is supplied with a temperature-controller that maintains the temperature at 55 °C. The time until the animal licked its hind paws or jumped was recorded by means of a stop-watch. In this assay a cutoff time was established (60 s) to avoid tissue damage, and the mice not responding within 60 s were removed from the apparatus and assigned a score of 60 s.

[4] = system: STZ-treated mice; assay: diabetic STZ-induced peripheral neuropathy, tactile allodynia (von Frey test); format: in vivo, mouse; conditions: 21 days after STZ, i.p., doses 10 and 30 mg/kg
Method: as §1
Doses of both paclitaxel and STZ used for the induction of neuropathy were selected based on our previous research.[66],[67] To induce neuropathy, paclitaxel was used at a dose of 18 mg/kg. […] Blood glucose level was measured 1 day before (referred to as “day 0”) and repeatedly 1, 2, and 3 weeks after STZ injection using a blood glucose monitoring system (Accu-Chek Active, Roche, France). […]
The ability of the test compounds to attenuate tactile allodynia caused by oxaliplatin, paclitaxel, and STZ was assessed using the von Frey test. For this purpose, 3 h after oxaliplatin or paclitaxel and 21 days after STZ injection, the predrug paw withdrawal threshold was measured for each mouse. […]

[5] = system: STZ-treated mice; assay: diabetic STZ-induced peripheral neuropathy, heat hyperalgesia (hot plate test); format: in vivo, mouse; conditions: i.p.
Method: as §1
Doses of both paclitaxel and STZ used for the induction of neuropathy were selected based on our previous research.[66],[67] To induce neuropathy, paclitaxel was used at a dose of 18 mg/kg. It was prepared by dissolving in ethanol (100% (v/v); Polskie Odczynniki Chemiczne, Gliwice, Poland) at 10% of the final desired volume and vortexed for 2 min. […] Blood glucose level was measured 1 day before (referred to as “day 0”) and repeatedly 1, 2, and 3 weeks after STZ injection using a blood glucose monitoring system (Accu-Chek Active, Roche, France). […]
Thermal (heat) nociceptive threshold was assessed in the hot plate test as previously described.[67] […] The time until the animal licked its hind paws or jumped was recorded by means of a stop-watch. […]

[6] = early (acute) phase of oxaliplatin-induced neuropathy, i.p., 50a and 56a at both doses (10 and 30 mg/kg)

| SMILES | IC50 [1] [µM] | effect on mechanical nociceptive threshold (tactile allodynia), von Frey test [2, 6] | effect on latency to pain reaction (heat), hot plate test ([3]; 30 mg/kg i.p.) | effect on thermal nociceptive threshold, hot plate test [3] | effect on mechanical nociceptive threshold (tactile allodynia), von Frey test [4] | effect on heat nociceptive threshold, hot plate test [5] | effect on mechanical nociceptive threshold (tactile allodynia), von Frey test ([2]; late phase (7 days after oxaliplatin), 10 mg/kg i.p., 10 mg/kg) | effect on latency to pain reaction (heat), hot plate test ([3]; 10 mg/kg i.p.) |
| --- | --- | --- | --- | --- | --- | --- | --- | --- |
| Cc1ccc(CNC(=O)[C@@H](C[C@@H](C)O)N(C)CCC=C2c3ccccc3CCc3ccccc32)cc1 (relative stereo) [Compound 2RS,4RS-39c, 2-((3-(10,11-Dihydro-5H-dibenzo[a,d][7]annulen-5-ylidene)propyl)(methyl)amino)-4-hydroxy-N-(4-methylbenzyl)pentanamide] | 20.4 | not effective | – | – | – | – | – | – |
| CN(CCON=C(c1ccccc1)c1ccccc1)C(CCN)C(=O)NCc1ccccc1Cl (stereo not shown) [Compound 50a, 4-Amino-N-[(2-chlorophenyl)methyl]-2-[(2-{[(diphenylmethylidene)amino]oxy}ethyl)(methyl)amino]butanamide] | 3.72 | significantly elevated the pain threshold for mechanical stimulation; also recorded: showed antiallodynic properties | reduced latency to pain reaction | did not reveal the effect of paclitaxel and compounds 50a and 56a on the thermal nociceptive threshold | effective only at the dose of 30 mg/kg | neither 50a nor 56a was effective | – | – |
| CN(CCC=C1c2ccccc2CCc2ccccc21)C(CO)C(=O)NCc1ccccc1 (stereo not shown) [Compound 56a, N-Benzyl-2-((3-(10,11-dihydro-5H-dibenzo[a,d][7]annulen-5-ylidene)propyl)(methyl)amino)-3-hydroxypropanamide] | 27.5 | reduced tactile allodynia; also recorded: showed antiallodynic properties | reduced latency to pain reaction | did not reveal the effect of paclitaxel and compounds 50a and 56a on the thermal nociceptive threshold | effective only at the dose of 30 mg/kg | neither 50a nor 56a was effective | showed antiallodynic properties in the acute and late phases | reduced latency to pain reaction |
